Measured values taken from article PMC8468024, “PTP1B Inhibitory Secondary Metabolites from an Antarctic Fungal Strain Acremonium sp. SF-7394” (Molecules, 2021).

Target: T1, protein tyrosine phosphatase 1B (PTP1B) (Homo sapiens, UniProt P18031)
T1 construct: gene PTPN1
T1 sequence (P18031 1-435): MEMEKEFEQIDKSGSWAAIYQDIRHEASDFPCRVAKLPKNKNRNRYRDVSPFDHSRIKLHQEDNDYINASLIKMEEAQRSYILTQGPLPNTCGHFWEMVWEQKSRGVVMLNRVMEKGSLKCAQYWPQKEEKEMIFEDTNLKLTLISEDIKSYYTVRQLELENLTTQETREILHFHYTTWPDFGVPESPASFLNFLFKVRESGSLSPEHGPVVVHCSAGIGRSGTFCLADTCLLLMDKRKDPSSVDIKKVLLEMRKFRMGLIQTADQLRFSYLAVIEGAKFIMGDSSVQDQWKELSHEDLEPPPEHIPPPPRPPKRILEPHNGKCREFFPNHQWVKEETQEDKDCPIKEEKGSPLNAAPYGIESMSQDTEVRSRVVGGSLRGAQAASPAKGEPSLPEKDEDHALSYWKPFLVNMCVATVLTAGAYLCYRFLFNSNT
Assay: p-NPP hydrolysis assay with recombinant enzyme; Lineweaver–Burk kinetics
Assay type: biochemical

CC(C)C[C@@H]1C[C@H](C)[C@@H]2CC[C@H](C)c3ccc(CO)c1c32 [compound 1, acrepseudoterin]
IC50: 22.8 ± 1.1 µM
